Reference: article PMC10343472, “Cyclopentenylcytosine (CPE-C): In Vitro and In Vivo Evaluation as an Antiviral against Adenoviral Ocular Infections” (Molecules, 2023)
Marks after values point to notes of the source that are not given here.

Legend:
HAdV1 = assay: plaque reduction assay in A549 cells, HAdV1; format: cell-based; settings: Human adenovirus sp.
Description: (§1) The in vitro antiviral testing was done using a standard plaque reduction assay with A549 human lung carcinoma cells as previously described. The EC50s were determined using a Fitted Line Plot Regression analysis with Minitab Version 21 software. The EC50 is the effective concentration that inhibits plaque formation by 50%. The HAdV types tested represent the most common adenovirus serotypes that cause ocular infections (HAdV8, HAdV19/64, HAdV37 (EKC); HAdV3, HAdV4, HAdV7a (follicular conjunctivitis)) and serotypes that cause conjunctivitis and can replicate in the rabbit ocular model (HAdV1, HAdV2, HAdV5).
(§2) For the in vitro antiviral testing, clinical adenovirus isolates of types HAdV1, HAdV2, HAdV3, HAdV4, HAdV5, HAdV7a, HAdV8, and HAdV19/64 were anonymously collected from patients presenting with typical adenoviral conjunctivitis at the Charles T. Campbell Ophthalmic Microbiology Laboratory at the UPMC Eye Center, University of Pittsburgh, Pittsburgh, PA, USA. The isolates were retrieved from a frozen −80 °C retrospective clinical collection that was de-identified and stored for diagnostic test validations. The types of isolates were determined using serum neutralization. Recently, HAdV19 has been reclassified as HAdV64 [41]; however, for the purpose of this study, it was designated as HAdV19/64. No clinical isolates of HAdV37 were identified, therefore the ATCC (American Type Culture Collection, Manassas, VA, USA) reference strain of HAdV37 was used. The clinical isolates along with the ATCC HAdV37 reference strain were grown in A549 cell (CCL-185, ATCC) monolayers and stocks were prepared, aliquoted, and frozen at –80 °C. The titers of the stock viruses were determined as described in Section 4.7. The same clinical isolate of HAdV5 used for the in vitro antiviral testing was also used for the in vivo antiviral evaluation in the Ad5/NZW rabbit ocular replication model.
(§3) A549 human lung carcinoma cells were grown and maintained in Eagle’s MEM supplemented with 10% fetal bovine serum (Sigma Cell Culture Reagents, St. Louis, MO, USA). The A549 cell line was used to prepare the adenovirus stocks and for the determination of viral titers in the Ad5/NZW rabbit ocular replication model and in the in vitro plaque reduction assays.
(§4) Plaque reduction assays were performed 2–4 times using 24-well multiplates containing A549 monolayers. One plate per virus isolate per drug was used. The 24-well multiplates were inoculated with approximately 100 plaque-forming units (PFU) of HAdV per well. After a three-hour adsorption period, the inocula were removed from all wells. […] The plates were dried, and the number of plaques per well was counted using a dissecting microscope. […] The mean and standard deviation EC50 concentrations of 2–4 trials were then determined for each HAdV isolate. […]

HAdV5 = assay: Ad5/NZW rabbit ocular replication model; format: in vivo, New Zealand white (NZW) rabbits; settings: for number of HAdV5-positive cultures per group on days 1, 3, 4, 5, 7 and 14 compared with saline control: Fisher Exact Test, p < 0.05; for reduction of the duration of shedding: vs saline control; for Duration of HAdV5 Shedding, Mean ± Sd: n = 20; for Mean ± Sd Combined HAdV5 Ocular Titers, Early Phase (Days 1–5) / Mean ± Sd Combined HAdV5 Ocular Titers, Late Phase (Days 7–14): n = 80
Description: Using the Ad5/NZW rabbit ocular replication model, the current study was performed in duplicate trials using a total of 40 rabbits (20 per trial). Following the systemic and topical anesthesia described above, the rabbits were topically inoculated with 50 µL (1.5 × 10^6 PFU/eye) of HAdV5 in both eyes after corneal epithelial scarification (12 cross-hatched strokes of a #25 sterile needle). Twenty-four hours later, the rabbits were randomly assigned to one of four topical treatment groups (n = 10): (1) 3% CPE-C 4X/day, (2) 3% CPE-C 2X/day, (3) 0.5% Cidofovir 2X/day, and (4) Saline Control 4X/day. Rabbits were treated topically in both eyes according to the above treatment regimens for 7 days. The CPE-C ointments were administered as described above in the ocular toxicity study. Cidofovir and saline were administered as 37 µL aqueous drops. Following topical anesthesia with 0.5% proparacaine, ocular swabbing to recover HAdV5 from the tear film and corneal and conjunctival surfaces was performed on days 0, 1, 3, 4, 5, 7, 9, 11, and 14 after inoculation. The cultures were taken at least 1 h after the final dose of antiviral on the days the antivirals were administered. The swabs from each eye were placed individually into tubes containing 1 mL of tissue culture media and were frozen at −80 °C pending viral plaque assay.
The samples to be assayed were diluted 1:10 for up to 6 dilutions. One-tenth of a ml of both the undiluted sample and the dilutions was inoculated onto duplicate wells of 24-well multiplates containing A549 monolayers. The virus was adsorbed for 3 h at 37 °C in a 5% CO2-water vapor atmosphere. The plates were rocked intermittently to keep the cells from drying. Following adsorption, 1 mL of tissue culture media containing 0.5% methylcellulose was added to each well, and the plates were incubated at 37 °C in a 5% CO2-water vapor atmosphere. After the appropriate incubation period, the cells were fixed and stained with 0.5% gentian violet in formalin. The plates were dried, and the number of plaques per well was counted under a dissecting microscope. The viral titers were then calculated and expressed as plaque-forming units per milliliter (PFU/mL).
The in vitro EC50 data was analyzed with Two-Sample T-Tests using Minitab (Minitab Inc., State College, PA, USA) statistical software Version 21. Following the completion of both trials in the in vivo antiviral efficacy study, the data from each trial were analyzed statistically using Minitab and GraphPad online (https://www.graphpad.com/quickcalcs/contingency1/ (accessed on 16 February 2023)). […] Significance was established at the p ≤ 0.05 confidence level.

[1] = set-up: method as in PMID 7554044; settings: treatment of solid tumors; intravenous; cited from earlier work
HAdV3 = assay: plaque reduction assay in A549 cells, HAdV3; format: cell-based; settings: Human adenovirus sp.
Description: as §1, §2, §3, §4

[2] = A549, HAdV1, converted from μg/mL
[3] = HAdV1 clinical isolate, A549 cells, mean ± SD of 2–4 trials
[4] = 3% ointment topical 2X/Day for 7 days
[5] = 3% ointment topical 4X/Day for 7 days
[6] = A549, HAdV3, converted from μg/mL
[7] = HAdV3 clinical isolate, A549 cells, mean ± SD of 2–4 trials
[8] = 0.5% drops topical 2X/Day for 7 days

Nc1ccn([C@@H]2C=C(CO)[C@@H](O)[C@H]2O)c(=O)n1 [CPE-C, Cyclopentenylcytosine]
EC50 (HAdV1; [2]): 0.214 ± 0.027 µM | EC50 (HAdV1; [3]): 0.051 ± 0.007 µg/mL | number of HAdV5-positive cultures per group on days 1, 3, 4, 5, 7 and 14 compared with saline control (HAdV5; 3% 2X/day): significantly reduced | number of HAdV5-positive cultures per group on days 1, 3, 4, 5, 7 and 14 compared with saline control (HAdV5; 3% 4X/day): significantly reduced | reduction of the duration of shedding (HAdV5; 3% administered 2X per day for 7 days): 5.6 days | reduction of the duration of shedding (HAdV5; 3% administered 4X per day for 7 days): 6.8 days | HAdV5-Positive Eye Cultures/Total, Early Phase (Days 1–5) (HAdV5; [4]): 29/80 | HAdV5-Positive Eye Cultures/Total, Early Phase (Days 1–5), percent (HAdV5; [4]): 36% | HAdV5-Positive Eye Cultures/Total, Late Phase (Days 7–14) (HAdV5; [4]): 2/80 | HAdV5-Positive Eye Cultures/Total, Late Phase (Days 7–14), percent (HAdV5; [4]): 3% | HAdV5-Positive Eye Cultures/Total, Overall (Days 1–14) (HAdV5; [4]): 31/160 | HAdV5-Positive Eye Cultures/Total, Overall (Days 1–14), percent (HAdV5; [4]): 19% | Duration of HAdV5 Shedding, Mean ± Sd (HAdV5; [4]): 2.5 ± 2.3 ^d Days | Mean ± Sd Combined HAdV5 Ocular Titers, Early Phase (Days 1–5) (HAdV5; [4]): 3.5 ± 18.1 × 10^1 b Log10 PFU/mL | Mean ± Sd Combined HAdV5 Ocular Titers, Late Phase (Days 7–14) (HAdV5; [4]): 3.6 ± 25.2 × 10^0 c Log10 PFU/mL | HAdV5-Positive Eye Cultures/Total, Late Phase (Days 7–14) (HAdV5; [5]): 6/80 | HAdV5-Positive Eye Cultures/Total, Late Phase (Days 7–14), percent (HAdV5; [5]): 8% | HAdV5-Positive Eye Cultures/Total, Overall (Days 1–14) (HAdV5; [5]): 24/160 | HAdV5-Positive Eye Cultures/Total, Overall (Days 1–14), percent (HAdV5; [5]): 15% | Duration of HAdV5 Shedding, Mean ± Sd (HAdV5; [5]): 1.3 ± 1.6 ^d Days | Mean ± Sd Combined HAdV5 Ocular Titers, Early Phase (Days 1–5) (HAdV5; [5]): 1.6 ± 4.8 × 10^1 b Log10 PFU/mL | Mean ± Sd Combined HAdV5 Ocular Titers, Late Phase (Days 7–14) (HAdV5; [5]): 0.9 ± 4.4 × 10^0 c Log10 PFU/mL | patient deaths during clinical trials [1]: Two patient deaths from refractory hypotension | EC50 (HAdV3; [6]): 0.165 ± 0.016 µM | EC50 (HAdV3; [7]): 0.04 ± 0.004 µg/mL

Nc1ccn(C[C@@H](CO)OCP(=O)(O)O)c(=O)n1 [Cidofovir, cidofovir, reference compound]
EC50 (HAdV1; [2]): 18.9 ± 2.11 µM | EC50 (HAdV1; [3]): 5.27 ± 0.588 µg/mL | number of HAdV5-positive cultures per group on days 1, 3, 4, 5, 7 and 14 compared with saline control (HAdV5; 0.5% 2X/day): significantly reduced | HAdV5-positive cultures on day 9 compared with saline control (HAdV5; 0.5% 2X/day, p = 0.0197, FET): significantly fewer | HAdV5-Positive Eye Cultures/Total, Early Phase (Days 1–5) (HAdV5; [8]): 26/80 | HAdV5-Positive Eye Cultures/Total, Early Phase (Days 1–5), percent (HAdV5; [8]): 33% | HAdV5-Positive Eye Cultures/Total, Late Phase (Days 7–14) (HAdV5; [8]): 1/80 | HAdV5-Positive Eye Cultures/Total, Late Phase (Days 7–14), percent (HAdV5; [8]): 1% | HAdV5-Positive Eye Cultures/Total, Overall (Days 1–14) (HAdV5; [8]): 27/160 | HAdV5-Positive Eye Cultures/Total, Overall (Days 1–14), percent (HAdV5; [8]): 17% | Duration of HAdV5 Shedding, Mean ± Sd (HAdV5; [8]): 2.0 ± 1.8 ^d Days | Mean ± Sd Combined HAdV5 Ocular Titers, Early Phase (Days 1–5) (HAdV5; [8]): 6.7 ± 12.7 × 10^0 b Log10 PFU/mL | Mean ± Sd Combined HAdV5 Ocular Titers, Late Phase (Days 7–14) (HAdV5; [8]): 0.3 ± 2.2 × 10^0 c Log10 PFU/mL | EC50 (HAdV3; [6]): 14.8 ± 3.26 µM | EC50 (HAdV3; [7]): 4.12 ± 0.91 µg/mL
